Test results: PubChem BioAssay (NCI)
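Exposure lasted 48 hours, with cells grown in 96-well plates and compounds tested at five concentrations. TGI marks complete inhibition of growth.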

Key:
Test in all cases: growth of human tumour cells (NCI), 48 h
NCI/ADR-RES ovarian = system: NCI/ADR-RES ovarian
SK-MEL-28 melanoma = system: SK-MEL-28 melanoma
HCT-116 colon = system: HCT-116 colon
MALME-3M melanoma = system: MALME-3M melanoma
PC-3 prostate = system: PC-3 prostate
TK-10 renal = system: TK-10 renal
BT-549 breast = system: BT-549 breast
T-47D breast = system: T-47D breast
SNB-75 CNS = system: SNB-75 CNS
NCI-H460 lung = system: NCI-H460 lung
SK-MEL-5 melanoma = system: SK-MEL-5 melanoma
M14 melanoma = system: M14 melanoma
A549 NSCLC = system: A549 NSCLC
SNB-19 CNS = system: SNB-19 CNS
K-562 leukemia = system: K-562 leukemia
NCI-H522 lung = system: NCI-H522 lung
KM12 colon = system: KM12 colon
SK-OV-3 ovarian = system: SK-OV-3 ovarian
OVCAR-8 ovarian = system: OVCAR-8 ovarian

Compound | TGI (NCI/ADR-RES ovarian) [µM] | TGI (SK-MEL-28 melanoma) [µM] | TGI (HCT-116 colon) [µM] | TGI (MALME-3M melanoma) [µM] | TGI (PC-3 prostate) [µM] | TGI (TK-10 renal) [µM] | TGI (BT-549 breast) [µM] | TGI (T-47D breast) [µM] | TGI (SNB-75 CNS) [µM] | TGI (NCI-H460 lung) [µM] | TGI (SK-MEL-5 melanoma) [µM] | TGI (M14 melanoma) [µM] | TGI (A549 NSCLC) [µM] | TGI (SNB-19 CNS) [µM] | TGI (K-562 leukemia) [µM] | TGI (NCI-H522 lung) [µM] | TGI (KM12 colon) [µM] | TGI (SK-OV-3 ovarian) [µM] | TGI (OVCAR-8 ovarian) [µM]
CC(C)CCC[C@@H](C)C1CCC2[C@@H]3CCC4C[C@@H](NS(C)(=O)=O)CC[C@]4(C)C3CC[C@@]21C (some centres undefined) | > 100 | > 100 | > 100 | > 100 | > 100 | > 100 | > 100 | > 100 | > 100 | > 100 | > 100 | > 100 | > 100 | > 100 | > 100 | > 100 | > 100 | > 100 | > 100
CCN(CC)CCCNc1ccc([N+](=O)[O-])c2nc3ccc(OC)cc3c(N)c12 | > 6.02 | > 10 | 2.49 | > 10 | 3.31 | > 10 | 2.9 | > 10 | 3.65 | 3.32 | > 10 | > 6.1 | 3.61 | > 6.29 | 4.79 | 4.69 | 3.16 | > 5.48 | 5.6
NC(=O)C(=CNC(=S)Nc1ccc(S(=O)(=O)Nc2ccccn2)cc1)C(N)=O | > 100 | > 100 | > 100 |  | > 100 | > 100 | > 100 | > 100 | > 100 | > 100 | > 100 | > 100 | > 100 | > 100 | > 100 | > 100 | > 100 | > 100 | > 100
CC(=O)Oc1c(OC(C)C)c(C)c(O[Si](C(C)C)(C(C)C)C(C)C)c2[nH]c3ccccc3c12 | > 100 | > 100 | > 100 |  | > 100 | > 100 | > 100 | > 100 | > 100 | > 100 | > 100 | > 100 | > 100 | > 100 | > 100 | > 100 | > 100 | > 100 | > 100
CN(C)C(=O)OC1=CC2CCC(C1)N2C (centres undefined) | > 100 | > 100 | > 100 | > 100 | > 100 | > 100 | > 100 | > 100 | > 100 | > 100 | > 100 | > 100 | > 100 | > 100 | > 100 | > 100 | > 100 | > 100 | > 100
Cc1cc2ccc(OC(=O)c3ccc(N=C(N)N)cc3)cc2oc1=O | > 100 | 58.6 | 76.5 | 60.7 | 78.5 | 49.8 | 64.6 | 95 | 71.9 | > 100 | > 100 | 97.7 | > 100 | 54.8 | 74.9 | 45.2 | 61.1 | 46.4 | > 100
O=C1/C(=C/c2[nH]ncc2-c2ccc(Cl)cc2)C(=O)N(c2ccccc2)C1c1ccccc1 (centres undefined) | > 100 | 50.4 | 25 | 62.5 | > 100 | > 100 | 43.7 | 17.3 |  | > 100 | 27.5 | 26 | > 100 | > 100 | 54.5 | 27.2 | 79.5 | 56.3 | 
Cc1ccc(OCC2=NC3S/C(=C/c4ccc([N+](=O)[O-])o4)C(=O)N3N2)cc1 (centres undefined) | 33.2 | 30.5 | 15.9 | 7.94 | 18.2 | 30.1 | 25.1 | 5.39 | 30 | 41.6 | 21.3 | 23.6 | 38.9 | 32.2 | 3.98 | 4.37 | 32 | 29.9 | 14.3
COc1cc(C(c2cccc3ccccc23)N2C(=O)CCC2C(=O)O)cc(OC)c1OC (centres undefined) | > 100 | > 100 | > 100 | > 100 | > 100 |  | > 100 | > 100 | > 100 | > 100 | > 100 | > 100 | > 100 | > 100 | > 100 | > 100 | > 100 | > 100 | > 100
Cc1cc(C)c2c(=O)n(CC(O)CN3CCN(CCOCCO)CC3)sc2n1 (centres undefined) | > 100 | 35.7 | 30.8 | 35.4 | 40.7 | 31.3 | 31.1 | 47.2 | 5.78 | 39 | 34.5 | 33.5 | > 100 | > 100 | > 100 | 32.1 | 48 | 60.7 | 39.9
COC(=O)c1nn2ccc3ccccc3c2c1C(=O)OC | > 100 | > 100 | > 100 | > 100 | > 100 | > 100 | > 100 | > 100 | > 100 | > 100 | > 100 | > 100 | > 100 | > 100 | > 100 | > 100 | > 100 | > 100 | > 100
